Assay results from paper PMC6754136 (PLoS ONE, 2019).

Legend:
[1] = molecular target: T1, partially purified recombinant human PDE6C (Homo sapiens, UniProt P51160); test: PDE6C inhibition assay (GMP production); type: biochemical
T1 construct: partially purified recombinant full-length human PDE6C; purchased SB Drug Discovery; host or cells: insect cells
Method: PDE6C inhibition was measured using the same method as described for PDE5 with modifications. […] The final reaction volume was 50 μL. […] Reactions were stopped as described above for PDE5 enzyme assays, and GMP was quantified as described above. […] The amount of GMP produced in these samples was subtracted from all samples before normalizing against untreated controls.

BJ-hTERT cells = test: cellular GMP levels after inhibitor treatment; type: cell-based, human; conditions: 20 μM inhibitor, 1 hour; mean ± SEM; p<0.001
Method: For assaying PDE5 inhibitor effects on GMP levels in a cell line, BJ-hTERT cells were plated in 6-well plates (Corning) in the media described above. When cells were 80% confluent, fresh, pre-warmed media with DMSO (untreated controls) or 20 μM sildenafil, 3, or 7 was added and incubated for 1 hour. Maximum DMSO concentration in all samples was 0.2% of the total well volume. Cells were washed once with cold 0.9% NaCl. 800 μL of 80:20 methanol:water spiked with 500 nM isotopically labeled amino acids as internal standards was added while cells were on dry ice. Cells were detached with a cell scraper. Extracts were vortexed for 10 minutes and centrifuged at maximum speed at 4 °C to remove debris. Extracts were dried down in a vacuum dryer and stored at -80 °C. An additional sample was reserved for visual inspection of cell health by confocal light microscopy and for cell counting with a hemocytometer. Three independent assays were conducted in total, with 1–2 replicates per assay. To analyze GMP levels, samples were reconstituted in 50 μL LC-MS grade water and analyzed by HPLC-UV-MS as described in the general procedures and for enzyme inhibition and kinetics assays. The amino acid standards were analyzed in full scan positive mode with mass windows m/z 50–800. GMP peak areas were normalized to the peak area of the internal standard ^13C4, ^15N-threonine or ^13C6, ^15N3-histidine to account for variations in extraction or resuspension volume. The peak areas were then normalized to the average GMP peak area in undrugged controls and multiplied by 100 to obtain the percent GMP.

[2] = mitochondrial viability assay with resazurin; type: cell-based, human; conditions: human, four cell lines, 0.01–10 μM, even at the highest concentration tested (10 μM)

T1 sequence (P51160 whole entry): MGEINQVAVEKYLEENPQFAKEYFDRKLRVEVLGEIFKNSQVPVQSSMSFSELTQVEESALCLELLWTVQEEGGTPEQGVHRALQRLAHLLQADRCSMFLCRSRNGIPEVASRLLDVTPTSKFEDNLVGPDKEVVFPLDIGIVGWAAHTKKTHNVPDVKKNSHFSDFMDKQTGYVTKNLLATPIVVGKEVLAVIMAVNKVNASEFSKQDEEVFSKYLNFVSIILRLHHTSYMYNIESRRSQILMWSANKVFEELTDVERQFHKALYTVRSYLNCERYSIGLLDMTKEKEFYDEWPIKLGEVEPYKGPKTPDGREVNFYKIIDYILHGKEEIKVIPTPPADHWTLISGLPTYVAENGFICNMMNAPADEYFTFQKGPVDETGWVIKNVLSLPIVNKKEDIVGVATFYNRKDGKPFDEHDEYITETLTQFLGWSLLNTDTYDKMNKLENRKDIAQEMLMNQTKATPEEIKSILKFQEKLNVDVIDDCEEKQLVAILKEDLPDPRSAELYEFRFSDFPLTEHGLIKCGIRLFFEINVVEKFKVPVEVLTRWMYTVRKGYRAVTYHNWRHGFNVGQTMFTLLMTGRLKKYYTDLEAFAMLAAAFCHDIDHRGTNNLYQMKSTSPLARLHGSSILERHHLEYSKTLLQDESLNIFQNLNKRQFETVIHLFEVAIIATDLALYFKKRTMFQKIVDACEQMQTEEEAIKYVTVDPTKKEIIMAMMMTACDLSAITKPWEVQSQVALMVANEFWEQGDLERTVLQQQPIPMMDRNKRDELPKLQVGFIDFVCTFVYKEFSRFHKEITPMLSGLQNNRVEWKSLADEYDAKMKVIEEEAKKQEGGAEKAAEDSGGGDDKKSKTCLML

specificity for PDE5 over PDE6C [1]: does not show this specificity | PDE6C inhibition, statistical significance ([1]; at 50x the PDE5 IC50, vs theoretical uninhibited mean of 100%): significantly inhibits PDE6C activity
Compound: COc1ccc(-c2oc3c(CC=C(C)C)c(O)cc(O)c3c(=O)c2OCCCO)cc1 [Compound 7, 3-O-(3-Hydroxypropyl)-Icaritin]
cellular GMP concentration, % of the GMP concentration in untreated control cells (BJ-hTERT cells): 13 ± 2% | viability at 3 days, 10 μM [2]: > 70%
